In US11666577B2 (National Institute of Biological Sciences, Beijing, priority 2018, dated 2023):

The compounds below were run on HT-29 cells (assay: Necroptosis assay (TNF-α/Smac mimetic/z-VAD, TSZ-induced) in HT-29 cells). Settings: Homo sapiens; Series 1 (Table 1) compounds 1-146; HT-29 cells, TNF-α/Smac mimetic/z-VAD, 24 hrs, cell viability by ATP level; read-out: Series 1 compound necroptosis activity.
Format: cell-based, human
Procedure: Methods: HT-29 cells were cultured in McCoy's 5 A culture medium (Invitrogen). On day one, HT-29 cells were plated in 96-well assay plates at density of 2,500-3,500 cells per well. On day two, necrosis were induced by adding 20 ng/ml TNF-α (T), 100 nM Smac mimetic (S), and […] z-VAD (Z). At the same time, 10 mM compound from a chemical library of ˜200,000 compounds was delivered into each well. After 24 hrs treatment, cell viability was determined by measuring ATP level using the Cell Titer-Glo Luminescent Cell Viability Assay kit. A CellTiter-Glo Assay (Promega) was performed according to the manufacturer's instructions. Luminescence was recorded with a PerkinElmer EnSpire Multimode Plate Reader. Survived cells were normalized to those cells treated with DMSO. RIPA-56 was used as a positive control for screening necroptosis inhibitors. Data are represented as mean±standard deviation of duplicates.
In previous work, we performed a cell-based high-throughput screen to identify necroptosis inhibitors using a chemical library of ˜200,000 compounds and identified multiple compounds that protected human colorectal adenocarcinoma (HT-29) cells from TNF-α/Smac mimetic/Z-VAD-fmk (TSZ)-induced necroptosis.^[4]
The anti-necroptosis potency of compounds 7-12 and 14-18 was evaluated in the HT-29 cell line; the EC50 values are shown in Table B.
[a] Necroptosis was induced in HT-29 cells for 24 h; the EC50 values given here are the mean values of at least three independent analyses.

SMILES	EC50
CCn1c(S(C)(=O)=O)nc2c1c(=O)n(C)c(=O)n2C [Compound 74, 7-ethyl-1,3-dimethyl-8-(methylsulfonyl)-1H-purine-2,6(3H,7H)-dione]	1 to 10 µM
CCn1c(S(=O)(=O)CC2CC2)nc2c1c(=O)n(C)c(=O)n2C [Compound 82]	1 to 100 µM
Cn1c(=O)[nH]c2nc(S(C)(=O)=O)n(C)c2c1=O [Compound 99, 1,7-dimethyl-8-(methylsulfonyl)-1H-purine-2,6(3H,7H)-dione]	1 to 100 µM
CCn1c(=O)n(C)c(=O)c2c1nc(S(C)(=O)=O)n2C [Compound 100, 3-ethyl-1,7-dimethyl-8-(methylsulfonyl)-1H-purine-2,6(3H,7H)-dione]	1 to 100 µM
CCCn1c(=O)n(C)c(=O)c2c1nc(S(C)(=O)=O)n2C [Compound 101, 1,7-dimethyl-8-(methylsulfonyl)-3-propyl-1H-purine-2,6(3H,7H)-dione]	1 to 100 µM
Cn1c(=O)c2c(nc(S(C)(=O)=O)n2C)n(CC2CC2)c1=O [Compound 102, 3-(cyclopropylmethyl)-1,7-dimethyl-8-(methylsulfonyl)-1H-purine-2,6(3H,7H)-dione]	1 to 100 µM
Cn1c(=O)c2c(nc(S(C)(=O)=O)n2C)n(Cc2ccccc2)c1=O [Compound 103, 3-benzyl-1,7-dimethyl-8-(methylsulfonyl)-1H-purine-2,6(3H,7H)-dione]	1 to 100 µM
C#CCn1c(=O)n(C)c(=O)c2c1nc(S(C)(=O)=O)n2C [Compound 106, 1,7-dimethyl-8-(methylsulfonyl)-3-(prop-2-ynyl)-1H-purine-2,6(3H,7H)-dione]	1 to 10 µM
Cn1c(=O)c2c(nc(S(C)(=O)=O)n2C)n(CC#N)c1=O [Compound 107, 2-(1,7-dimethyl-8-(methylsulfonyl)-2,6-dioxo-1H-purin-3(2H,6H,7H)-yl)acetonitrile]	1 to 100 µM
Cn1c(=O)c2c(nc(S(=O)(=O)CC3CC3)n2C)n(CC#Cc2cccc(Cl)c2)c1=O [Compound 119, 3-(3-(3-chlorophenyl)prop-2-yn-1-yl)-8-((cyclopropylmethyl)sulfonyl)-1,7-dimethyl-3,7-dihydro-1H-purine-2,6-dione]	1 to 10 µM

Same assay, conditions: Homo sapiens; Series 2 (Table 2) compounds; HT-29 necroptosis assay; read-out: Series 2 compound necroptosis activity

SMILES	EC50
Cn1c(=O)c2c(nc3n2CCS3(=O)=O)n(CC#Cc2cccc(NCCN3CCOCC3)c2)c1=O [Compound 67]	0.001 to 0.1 µM

Same assay, conditions: Series 1 (Table 1) compounds 1-146; HT-29 cells, TNF-α/Smac mimetic/z-VAD, 24 hrs, cell viability by ATP level; read-out: Series 1 compound necroptosis activity

SMILES	EC50
Cn1c(=O)c2c(nc(S(=O)(=O)Cc3ccc(Br)c(Cl)c3)n2C)n(C)c1=O [Compound 64, 8-(4-bromo-3-chlorobenzylsulfonyl)-1,3,7-trimethyl-1H-purine-2,6(3H,7H)-dione]	1 to 1000 µM
CCOc1ccc(OC)cc1CS(=O)(=O)c1nc2c(c(=O)n(C)c(=O)n2C)n1C [Compound 65, 8-(2-ethoxy-5-methoxybenzylsulfonyl)-1,3,7-trimethyl-1H-purine-2,6(3H,7H)-dione]	1 to 1000 µM
CCCOc1ccc(OC)cc1CS(=O)(=O)c1nc2c(c(=O)n(C)c(=O)n2C)n1C [Compound 66, 8-(5-methoxy-2-propoxybenzylsulfonyl)-1,3,7-trimethyl-1H-purine-2,6(3H,7H)-dione]	1 to 1000 µM
CCOc1ccc(OC)c(CS(=O)(=O)c2nc3c(c(=O)n(C)c(=O)n3C)n2C)c1 [Compound 67, 8-(5-ethoxy-2-methoxybenzylsulfonyl)-1,3,7-trimethyl-1H-purine-2,6(3H,7H)-dione]	1 to 1000 µM
CCCOc1ccc(OC)c(CS(=O)(=O)c2nc3c(c(=O)n(C)c(=O)n3C)n2C)c1 [Compound 68, 8-(2-methoxy-5-propoxybenzylsulfonyl)-1,3,7-trimethyl-1H-purine-2,6(3H,7H)-dione]	1 to 1000 µM
COc1ccc(Br)c(OC)c1CS(=O)(=O)c1nc2c(c(=O)n(C)c(=O)n2C)n1C [Compound 69, 8-(3-bromo-2,6-dimethoxybenzylsulfonyl)-1,3,7-trimethyl-1H-purine-2,6(3H,7H)-dione]	1 to 1000 µM
COc1cc(CS(=O)(=O)c2nc3c(c(=O)n(C)c(=O)n3C)n2C)c(OC)cc1Cl [Compound 70, 8-(4-chloro-2,5-dimethoxybenzylsulfonyl)-1,3,7-trimethyl-1H-purine-2,6(3H,7H)-dione]	1 to 1000 µM
COc1cc(CS(=O)(=O)c2nc3c(c(=O)n(C)c(=O)n3C)n2C)c(OC)cc1F [Compound 71, 8-(4-fluoro-2,5-dimethoxybenzylsulfonyl)-1,3,7-trimethyl-1H-purine-2,6(3H,7H)-dione]	1 to 1000 µM
Cn1c(=O)c2[nH]c(S(C)(=O)=O)nc2n(C)c1=O [Compound 72, 1,3-dimethyl-8-(methylsulfonyl)-1H-purine-2,6(3H,7H)-dione]	1 to 1000 µM
CCn1c(SC)nc2c1c(=O)n(C)c(=O)n2C [Compound 73, 7-ethyl-1,3-dimethyl-8-(methylthio)-1H-purine-2,6(3H,7H)-dione]	1 to 1000 µM
CCSc1nc2c(c(=O)n(C)c(=O)n2C)n1CC [Compound 75, 7-ethyl-8-(ethylthio)-1,3-dimethyl-1H-purine-2,6(3H,7H)-dione]	1 to 1000 µM
CCn1c([S+]([O-])CC)nc2c1c(=O)n(C)c(=O)n2C (stereo not shown) [Compound 76, 7-ethyl-8-(ethylsulfinyl)-1,3-dimethyl-1H-purine-2,6(3H,7H)-dione]	1 to 1000 µM
CCn1c(S(=O)(=O)CC)nc2c1c(=O)n(C)c(=O)n2C [Compound 77, 7-ethyl-8-(ethylsulfonyl)-1,3-dimethyl-1H-purine-2,6(3H,7H)-dione]	1 to 1000 µM
CCCSc1nc2c(c(=O)n(C)c(=O)n2C)n1CC [Compound 78, 7-ethyl-1,3-dimethyl-8-(propylthio)-1H-purine-2,6(3H,7H)-dione]	1 to 1000 µM
CCC[S+]([O-])c1nc2c(c(=O)n(C)c(=O)n2C)n1CC (stereo not shown) [Compound 79, 7-ethyl-1,3-dimethyl-8-(propylsulfinyl)-1H-purine-2,6(3H,7H)-dione]	1 to 1000 µM
CCCS(=O)(=O)c1nc2c(c(=O)n(C)c(=O)n2C)n1CC [Compound 80, 7-ethyl-1,3-dimethyl-8-(propylsulfonyl)-1H-purine-2,6(3H,7H)-dione]	1 to 1000 µM
CCn1c(SCC2CC2)nc2c1c(=O)n(C)c(=O)n2C [Compound 81, 8-(cyclopropylmethylthio)-7-ethyl-1,3-dimethyl-1H-purine-2,6(3H,7H)-dione]	1 to 1000 µM
CCCn1c(S(C)(=O)=O)nc2c1c(=O)n(C)c(=O)n2C [Compound 83, 1,3-dimethyl-8-(methylsulfonyl)-7-propyl-1H-purine-2,6(3H,7H)-dione]	1 to 1000 µM
Cn1c(=O)c2c(nc(S(C)(=O)=O)n2CC#N)n(C)c1=O [Compound 84, 2-(1,3-dimethyl-8-(methylsulfonyl)-2,6-dioxo-2,3-dihydro-1H-purin-7(6H)-yl)acetonitrile]	1 to 1000 µM
CSc1nc2c(c(=O)n(C)c(=O)n2C)n1CC(N)=O [Compound 85, 2-(1,3-dimethyl-8-(methylthio)-2,6-dioxo-2,3-dihydro-1H-purin-7(6H)-yl)acetamide]	1 to 1000 µM
Cn1c(=O)c2c(nc(S(C)(=O)=O)n2CC(N)=O)n(C)c1=O [Compound 86, 2-(1,3-dimethyl-8-(methylsulfonyl)-2,6-dioxo-2,3-dihydro-1H-purin-7(6H)-yl)acetamide]	1 to 1000 µM
CSc1nc2c(c(=O)[nH]c(=O)n2C)n1C [Compound 87, 3,7-dimethyl-8-(methylthio)-1H-purine-2,6(3H,7H)-dione]	1 to 1000 µM
Cn1c(S(C)(=O)=O)nc2c1c(=O)[nH]c(=O)n2C [Compound 88, 3,7-dimethyl-8-(methylsulfonyl)-1H-purine-2,6(3H,7H)-dione]	1 to 1000 µM
CCn1c(=O)c2c(nc(S(C)(=O)=O)n2C)n(C)c1=O [Compound 89, ethyl-3,7-dimethyl-8-(methylsulfonyl)-1H-purine-2,6(3H,7H)-dione]	1 to 1000 µM
CCCn1c(=O)c2c(nc(S(C)(=O)=O)n2C)n(C)c1=O [Compound 90, 3,7-dimethyl-8-(methylsulfonyl)-1-propyl-1H-purine-2,6(3H,7H)-dione]	1 to 1000 µM
Cn1c(S(C)(=O)=O)nc2c1c(=O)n(CC1CC1)c(=O)n2C [Compound 91, 1-(cyclopropylmethyl)-3,7-dimethyl-8-(methylsulfonyl)-1H-purine-2,6(3H,7H)-dione]	1 to 1000 µM
Cn1c(S(C)(=O)=O)nc2c1c(=O)n(-c1ccccc1)c(=O)n2C [Compound 92, 3,7-dimethyl-8-(methylsulfonyl)-1-phenyl-1H-purine-2,6(3H,7H)-dione]	1 to 1000 µM
Cn1c(S(C)(=O)=O)nc2c1c(=O)n(Cc1ccccc1)c(=O)n2C [Compound 93, 1-benzyl-3,7-dimethyl-8-(methylsulfonyl)-1H-purine-2,6(3H,7H)-dione]	1 to 1000 µM

Same assay, conditions: Series 1 (Table 1) compounds; HT-29 cells, TNF-α/Smac mimetic/z-VAD, 24 hrs, cell viability by ATP level; read-out: Series 1 compound necroptosis activity

SMILES	EC50
Cn1c(=O)c2c(nc(S(=O)(=O)CC3CC3)n2C)n(CC#Cc2ccc(Cl)cc2)c1=O [Compound 121, 3-(3-(4-chlorophenyl)prop-2-yn-1-yl)-8-((cyclopropylmethyl)sulfonyl)-1,7-dimethyl-3,7-dihydro-1H-purine-2,6-dione]	0.001 to 1 µM
